{"source": "patent US20250177407A1", "about": "(Closed Loop Medicine Ltd., priority 2023, published 2025)", "origin": "cited, not measured here", "key": {"patients with AF": {"tested_on": "patients with AF", "conditions": "management of AF"}, "[1]": {"tested_on": "patients with nonvalvular AF", "conditions": "ROCKET-AF"}, "[2]": {"assay": "not given", "remark": "listed apart in the source"}, "[3]": {"assay": "not given", "remark": "listed apart in the source"}, "[4]": {"assay": "not given", "remark": "listed apart in the source"}, "[5]": {"assay": "not given", "remark": "listed apart in the source"}, "factor Xa activity": {"target": "factor Xa activity (Homo sapiens, UniProt P00742)", "sequence (P00742 235-488 limits assumed)": "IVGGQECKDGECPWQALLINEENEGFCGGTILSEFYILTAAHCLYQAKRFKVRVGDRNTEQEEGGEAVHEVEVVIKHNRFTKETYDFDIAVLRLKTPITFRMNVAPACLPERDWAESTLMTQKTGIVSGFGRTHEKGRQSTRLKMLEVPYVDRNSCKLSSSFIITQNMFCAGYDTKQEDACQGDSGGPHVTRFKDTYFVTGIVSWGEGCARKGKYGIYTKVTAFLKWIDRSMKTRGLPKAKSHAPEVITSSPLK", "sequence (P00742 41-179 partner limits assumed)": "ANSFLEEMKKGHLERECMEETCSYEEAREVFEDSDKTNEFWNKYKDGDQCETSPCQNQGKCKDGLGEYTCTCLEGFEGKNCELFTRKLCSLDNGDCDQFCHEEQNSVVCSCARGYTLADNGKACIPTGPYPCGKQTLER"}, "[6]": {"conditions": "clearance adjustment, comedication"}}, "note": "Like-named read-outs stand apart in the source and are kept apart here. Marks after values point to notes of the source that are not given here.", "data": [{"smiles": "CC(=O)CC(c1ccccc1)c1c(O)c2ccccc2oc1=O", "note": "(stereo not shown) [warfarin]", "values": [{"measurement": "reduction of stroke", "setting": "patients with AF", "result": "about 60%"}, {"measurement": "rate of fatal stroke", "setting": "[1]", "result": 2.2, "unit": "% per year"}]}, {"smiles": "O=C(NC[C@H]1CN(c2ccc(N3CCOCC3=O)cc2)C(=O)O1)c1ccc(Cl)s1", "note": "[rivaroxaban]", "values": [{"measurement": "bioavailability", "setting": "20 mg tablets, fasting, healthy subjects", "result": "approximately 66%"}, {"measurement": "variability in drug plasma levels for a given dose", "setting": "between patients", "result": "6- to 10 fold"}, {"measurement": "half-life", "setting": "elderly", "result": "11 to 13", "unit": "h"}, {"measurement": "half life", "setting": "elderly patients", "result": "~12", "unit": "h"}, {"measurement": "half-life", "setting": "healthy volunteers", "result": "5 to 9", "unit": "h"}, {"measurement": "fraction of absorbed drug eliminated unchanged via the kidney", "setting": "human, in vivo", "result": 30, "unit": "%"}, {"measurement": "fraction of absorbed drug metabolised by hepatic CYP 3A4/5 and CYP-independent enzymes", "setting": "human, in vivo", "result": "Approximately 60%"}, {"measurement": "time to peak levels", "setting": "once daily immediate release with food", "result": "1 to 2", "unit": "h"}, {"measurement": "bioavailability", "setting": "oral 2.5 and 10 mg tablets, not affected by food", "result": "80-100%"}, {"measurement": "time to peak concentration", "setting": "oral administration", "result": "2 to 4", "unit": "h"}, {"measurement": "half-life", "setting": "population not specified", "result": "5 to 9", "unit": "h"}, {"measurement": "half life", "setting": "young patients", "result": "5 to 9", "unit": "h"}, {"measurement": "plasma protein binding", "setting": "[2]", "result": "92-95%"}, {"measurement": "interethnic differences in PK and PD characteristics", "setting": "[3]; Caucasian, African-American, Hispanic, Japanese, Chinese patients (EMA)", "result": "no clinically relevant interethnic differences"}, {"measurement": "higher exposure compared to other ethnicities", "setting": "[3]; healthy Japanese subjects, on average (FDA)", "result": "20-40%"}, {"measurement": "increase in AUC compared with healthy subjects", "setting": "[3]; mild (Child-Pugh A) hepatic impairment", "result": 15, "unit": "%"}, {"measurement": "increase in exposure", "setting": "[3]; mild renal impairment (CrCl 50-79 mL/min)", "result": 44, "unit": "%"}, {"measurement": "increase in the effect-time curve AUC", "setting": "[3]; moderate hepatic impairment", "result": 159, "unit": "%"}, {"measurement": "prothrombin time", "setting": "[3]; moderate hepatic impairment", "result": "significant prolongation"}, {"measurement": "increase in exposure", "setting": "[3]; moderate renal impairment (CrCl 30-49 mL/min)", "result": 52, "unit": "%"}, {"measurement": "increase in exposure", "setting": "[3]; severe renal impairment (CrCl<30 mL/min)", "result": 64, "unit": "%"}, {"measurement": "θCL/F, P-gp inhibitor", "setting": "[4]; clearance adjustment, P-gp inhibitor comedication", "result": 0.996, "unit": "Proportion"}, {"measurement": "θCL/F, VTE ≤72 hr", "setting": "[4]; clearance adjustment, VTE prevention after hip or knee surgery, less than 72 hours", "result": 1.04, "unit": "Proportion"}, {"measurement": "θCL/F, VTE >72 hr", "setting": "[4]; clearance adjustment, VTE prevention after hip or knee surgery, more than 72 hours", "result": 1.29, "unit": "Proportion"}, {"measurement": "θCL/F, ACS", "setting": "[4]; clearance adjustment, acute coronary syndrome", "result": 1.14, "unit": "Proportion"}, {"measurement": "θCL/F, CYP3A4 inducer", "setting": "[4]; [6]", "result": 1.3, "unit": "Proportion"}, {"measurement": "θCL/F, Medium CYP3A4 inhibitor", "setting": "[4]; [6]", "result": 0.863, "unit": "Proportion"}, {"measurement": "θCL/F, Strong CYP3A4 inhibitor", "setting": "[4]; [6]", "result": 0.978, "unit": "Proportion"}, {"measurement": "θCL/F, Weak CYP3A4 inhibitor", "setting": "[4]; [6]", "result": 0.939, "unit": "Proportion"}, {"measurement": "θCL/F, AF", "setting": "[4]; clearance adjustment, stroke prevention in AF", "result": 0.849, "unit": "Proportion"}, {"measurement": "θV/F, Age", "setting": "[4]; covariate effect of age on V/F", "result": "−0.189", "unit": "Power"}, {"measurement": "θCL/F, Weight", "setting": "[4]; covariate effect of body weight on CL/F", "result": "−0.278", "unit": "Power"}, {"measurement": "θV/F, Weight", "setting": "[4]; covariate effect of body weight on V/F", "result": 0.216, "unit": "Power"}, {"measurement": "θCL/F, CRCL", "setting": "[4]; covariate effect of creatinine clearance on CL/F", "result": 0.406, "unit": "Power"}, {"measurement": "θV/F, Sex", "setting": "[4]; covariate effect of sex on V/F", "result": 0.889, "unit": "Proportion"}, {"measurement": "ω^2CL/F", "setting": "[4]; inter-individual variability", "result": 0.167, "unit": "Variance"}, {"measurement": "ω^2CL/F, V/F", "setting": "[4]; inter-individual variability", "result": 0.0674, "unit": "Covariance"}, {"measurement": "ω^2Ka", "setting": "[4]; inter-individual variability", "result": 0.628, "unit": "Variance"}, {"measurement": "ω^2V/F", "setting": "[4]; inter-individual variability", "result": 0.0391, "unit": "Variance"}, {"measurement": "CL/F, apparent clearance", "setting": "[4]; population PK estimate", "result": 6.58, "unit": "L/h"}, {"measurement": "Ka, first-order absorption rate constant", "setting": "[4]; population PK estimate", "result": 0.821, "unit": "h⁻¹"}, {"measurement": "V/F, apparent volume of distribution", "setting": "[4]; population PK estimate", "result": 62.5, "unit": "L"}, {"measurement": "D50", "setting": "[4]; relative bioavailability model", "result": 14.4, "unit": "mg"}, {"measurement": "σ^2prop", "setting": "[4]; residual variability", "result": 0.203, "unit": "Variance"}, {"measurement": "increase in drug level exposure (AUC)", "setting": "[5]; CrCl = 30, relative to median CrCl of 69 for the RE-LY study data", "result": 1.8, "unit": "fold"}, {"measurement": "increase in drug level exposure (AUC)", "setting": "[5]; CrCl = 50, relative to median CrCl of 69 for the RE-LY study data", "result": 1.3, "unit": "fold"}, {"measurement": "increase in drug level exposure (AUC)", "setting": "[5]; South Asians compared to other ethnicities", "result": "~26% increase in South Asians compared to"}, {"measurement": "increase in drug level exposure (AUC) per year older", "setting": "[5]; age, compared to 72 yr", "result": "0.41% increase per year older compared to 72 yr"}, {"measurement": "decrease in drug level exposure (AUC)", "setting": "[5]; comedication PPIs", "result": "~13", "unit": "% decrease"}, {"measurement": "increase in drug level exposure (AUC)", "setting": "[5]; comedication amiodarone", "result": 12, "unit": "% increase"}, {"measurement": "increase in drug level exposure (AUC)", "setting": "[5]; comedication verapamil", "result": 23, "unit": "% increase"}, {"measurement": "increase in drug level exposure (AUC)", "setting": "[5]; females compared to men", "result": "~9% increase in females compared to men"}, {"measurement": "decrease in Vd", "setting": "[5]; haemoglobin above 14.3 g · dL^−1", "result": "by 4%/1 g · dL^−1 above 14.3 g · dL^−1"}, {"measurement": "effect of low weight on Cmax", "setting": "[5]; in vivo", "result": "increase Cmax"}, {"measurement": "increase in drug level exposure (AUC)", "setting": "[5]; patients with heart failure", "result": "~7% increase in patients with HF"}, {"measurement": "increase in distribution volume (Vd) per kg above 80 kg", "setting": "[5]; weight", "result": "in distribution volume (Vd) by 0.8%"}, {"measurement": "slope of prothrombin time versus plasma concentration", "setting": "prothrombin time; Esmueti et al. (2022), Fisherbrand reagent", "result": "0.018 s/(μg/ L)"}, {"measurement": "Hill", "setting": "prothrombin time; Zhao et al. (2022)", "result": "1.37 ^b"}, {"measurement": "slope of prothrombin time versus plasma concentration", "setting": "prothrombin time; Zhao et al. (2022)", "result": "0.0018 ^b s/(μg/L)"}, {"measurement": "Emax", "setting": "factor Xa activity; Girgis et al. (2014)", "result": 107, "unit": "%"}, {"measurement": "Emax", "setting": "factor Xa activity; Mueck et al. (2007)", "result": 0.86, "unit": "U/ml"}, {"measurement": "Emax", "setting": "factor Xa activity; Mueck et al. (2008b), KRS", "result": 0.837, "unit": "U/ml"}, {"measurement": "Emax", "setting": "factor Xa activity; Mueck et al. (2008b), day 1, HRS", "result": 0.881, "unit": "U/ml"}, {"measurement": "Emax", "setting": "factor Xa activity; Mueck et al. (2008b), steady state, HRS", "result": 0.942, "unit": "U/ml"}, {"measurement": "FXa0 (second entry of the cell)", "setting": "factor Xa activity; Tanigawa et al. (2013)", "result": 0.928, "unit": "U/mL"}, {"measurement": "Hill", "setting": "factor Xa activity; Tanigawa et al. (2013)", "result": 1.16}, {"measurement": "rate of fatal stroke", "setting": "[1]", "result": 1.7, "unit": "% per year"}, {"measurement": "risk of intracranial bleeds", "setting": "[1]", "result": 0.5, "unit": "%"}]}]}
